Reference: patent US20240101573A1, “MACROCYCLIC K-RAS G12C INHIBITOR, PREPARATION METHOD THEREFOR AND USE THEREOF” (Abbisko Therapeutics Co., Ltd., priority 2020, published 2024)

Tests used:
MIA PaCa-2 = test: Anti-proliferation 2D CTG test (MIA PaCa-2); assay type: cell-based; conditions: MIAPACA-2 cells, 500 cells/well, 5 days incubation with compound, CTG readout
Description: (§1) When the cell confluency was 80%, the cells were isolated with 0.25% trypsin. The isolated cells were resuspended in 5 mL of fresh cell culture medium and centrifuged to collect the cells. The number of cells were counted at the same time. Then, the cells were suspended in a culture medium at a moderate concentration. The cells were placed into a 96-well plate with 1500 cells/well for H358 and 500 cells/well for MIAPACA-2. The 96-well plate was placed in an incubator at 37° C. and incubated overnight.
(§2) 2) Day 1: processing of compound
(§3) A 2 mM stock solution was serially diluted at 10 points at a ratio of 1:3. 5× culture medium containing the compound was transferred to the corresponding wells of 96 wells. The final peak concentration of the compound was […], and the final concentration of DMSO was 0.5%. The 96-well plate was placed in the incubator at 37° C. and incubated for 5 days.
(§4) 3) Baseline reading. 4) Day 6: reading of signals
(§5) A detection reagent (CTG) was added at 50 μL/well, and the signals were read in an Envision instrument.
(§6) The percentage of inhibition ([…]) at each compound concentration was calculated based on the signals from the HPE and ZPE control wells contained in each assay plate and the fluorescence signals from individual compound wells. The inhibition rate in the ZPE control wells containing the enzyme and substrate was 0%, and the inhibition rate in the HPE control wells only containing the substrate was […]. By testing the compound in terms of numeric concentration and inhibition percentage, the compound concentration required for […] inhibition (IC50) was determined using a four-parameter logarithmic dose-response equation. The endpoint value (IC50) of the reference compound was evaluated in each experiment as a quality control measure. If the endpoint value was within three times the expected value, the experiment was considered acceptable.

H358 = test: Anti-proliferation 2D CTG test (H358); assay type: cell-based; conditions: H358 cells, 1500 cells/well, 5 days incubation with compound, CTG readout
Description: as §1, §2, §3, §4, §5, §6

[1] = Homo sapiens, MIA PaCa-2, 120 h

IC50 (MIA PaCa-2; [1]) | IC50 (H358; Homo sapiens, NCI-H358, 120 h) | IC50 (MIA PaCa-2) | IC50 (H358) | SMILES
0.005 µM | 0.005 µM | – | – | C=CC(=O)N1CCN(c2nc(=O)n3c4nc(c(F)cc24)-c2c(F)cccc2OCC(OC(=O)C(C)C)C(OC(=O)C(C)C)c2ccnc(C(C)C)c2-3)[C@@H](C)C1 (stereo partly drawn) [Example 13, 2^4-((S)-4-acryloyl-2-methylpiperazin-1-yl)-2^6,3^6-difluoro-1^2-isopropyl-2^2-oxo-2^1,2^2-dihydro-4-oxa-2(1,7)-pyrido[2,3-d]pyrimidina-1(3,4)-pyridina-3(1,2)-benzocycloheptane-6,7-diyl di(2-methylpropionate)]
0.009 µM | 0.006 µM | – | – | C=CC(=O)N1CCN(c2nc(=O)n3c4nc(c(F)cc24)-c2c(F)cccc2OCC(OC(=O)C2CC2)C(OC(=O)C2CC2)c2ccnc(C(C)C)c2-3)[C@@H](C)C1 (stereo partly drawn) [Example 14, 2^4-((S)-4-acryloyl-2-methylpiperazin-1-yl)-2^6,3^6-difluoro-1^2-isopropyl-2^2-oxo-2^1,2^2-dihydro-4-oxa-2(1,7)-pyrido[2,3-d]pyrimidina-1(3,4)-pyridina-3(1,2)-benzocycloheptane-6,7-diyl dicyclopropanecarboxylate]
0.01 µM | 0.012 µM | – | – | C=CC(=O)N1CCN(c2nc(=O)n3c4nc(c(F)cc24)-c2c(F)cccc2OCC(OC(=O)OC(C)(C)C)C(OC(=O)OC(C)(C)C)c2ccnc(C(C)C)c2-3)[C@@H](C)C1 (stereo partly drawn) [Example 15, 2^4-((S)-4-acryloyl-2-methylpiperazin-1-yl)-2^6,3^6-difluoro-1^2-isopropyl-2^2-oxo-2^1,2^2-dihydro-4-oxa-2(1,7)-pyrido[2,3-d]pyrimidina-1(3,4)-pyridina-3(1,2)-benzocycloheptane-6,7-diyl di-tert-butyldi(carbonate)]
0.02 µM | 0.029 µM | – | – | C=CC(=O)N1CCN(c2nc(=O)n3c4nc(c(F)cc24)-c2c(F)cccc2OCCC(OC(C)=O)c2ccnc(C(C)C)c2-3)[C@@H](C)C1 (stereo partly drawn) [Example 16, 2^4-((S)-4-acryloyl-2-methylpiperazin-1-yl)-2^6,3^6-difluoro-1^2-isopropyl-2^2-oxo-2^1,2^2-dihydro-4-oxa-2(1,7)-pyrido[2,3-d]pyrimidina-1(3,4)-pyridina-3(1,2)-benzocycloheptane-7-yl acetate]
0.009 µM | 0.009 µM | – | – | C=CC(=O)N1CCN(c2nc(=O)n3c4nc(c(F)cc24)-c2c(F)cccc2OCC(OCOC(=O)OC)C(OCOC(=O)OC)c2ccnc(C(C)C)c2-3)[C@@H](C)C1 (stereo partly drawn) [Example 17, ((2^4-((S)-4-acryloyl-2-methylpiperazin-1-yl)-2^6,3^6-difluoro-1^2-isopropyl-2^2-oxo-2^1,2^2-dihydro-4-oxa-2(1,7)-pyrido[2,3-d]pyrimidina-1(3,4)-pyridina-3(1,2)-benzocycloheptane-6,7-diyl)di(oxo))di(methylene) dimethyldi(carbonate)]
0.018 µM | 0.018 µM | – | – | C=CC(=O)N1CCN(c2nc(=O)n3c4nc(c(F)cc24)-c2c(F)cccc2OCC(=O)C(OC(C)=O)c2ccnc(C(C)C)c2-3)[C@@H](C)C1 (stereo partly drawn) [Example 19, 2^4-((S)-4-acryloyl-2-methylpiperazin-1-yl)-2^6,3^6-difluoro-1^2-isopropyl-2^2,6-dioxo-2^1,2^2-dihydro-4-oxa-2(1,7)-pyrido[2,3-d]pyrimidina-1(3,4)-pyridina-3(1,2)-benzocycloheptane-7-yl acetate]
– | – | 0.03 µM | 0.025 µM | C=CC(=O)N1CCN(c2nc(=O)n3c4nc(c(F)cc24)-c2c(F)cccc2OCC(=O)C(OC(C)=O)c2ccnc(C(C)C)c2-3)[C@@H](C)C1 (stereo partly drawn) [Example 20, (R)-2^4-((S)-4-acryloyl-2-methylpiperazin-1-yl)-2^6,3^6-difluoro-1^2-isopropyl-2^2,6-dioxo-2^1,2^2-dihydro-4-oxa-2(1,7)-pyrido[2,3-d]pyrimidina-(3,4)-pyridina-3(1,2)-benzocycloheptane-7-yl acetate]
0.153 µM | 0.06 µM | – | – | C=CC(=O)N1CCN(c2nc(=O)n3c4nc(c(F)cc24)-c2c(F)cccc2OCC(OCC)C(=O)c2ccnc(C(C)C)c2-3)[C@@H](C)C1 (stereo partly drawn) [Example 21, (R)-2^4-((S)-4-acryloyl-2-methylpiperazin-1-yl)-6-ethoxy-2^6,3^6-difluoro-1^2-isopropyl-2^1,2^2-dihydro-4-oxa-2(1,7)-pyrido[2,3-d]pyrimidina-1(3,4)-pyridina-3(1,2)-benzocycloheptane-22,7-dione]
0.007 µM | 0.014 µM | – | – | C=CC(=O)N1CCN(c2nc(=O)n3c4nc(c(F)cc24)-c2c(F)cccc2OCC(=O)C(OCC)c2ccnc(C(C)C)c2-3)[C@@H](C)C1 (stereo partly shown) [Example 22]
– | – | 0.009 µM | 0.011 µM | C=CC(=O)N1CCN(c2nc(=O)n3c4nc(c(F)cc24)-c2c(F)cccc2OCC(O)C(OC(=O)C(N)C(C)C)c2ccnc(C(C)C)c2-3)C(C)C1 [Example 23, 2^4-((S)-4-acryloyl-2-methylpiperazin-1-yl)-2^6,3^6-difluoro-6-hydroxy-1^2-isopropyl-2^2-oxo-2^1,2^2-dihydro-4-oxa-2(1,7)-pyrido[2,3-d]pyrimidina-1(3,4)-pyridina-3(1,2)-benzocycloheptane-7-yl L-valine ester]
0.008 µM | 0.017 µM | – | – | C=CC(=O)N1CCN(c2nc(=O)n3c4nc(c(F)cc24)-c2c(F)cccc2OCC(O)C(OCCF)c2ccnc(C(C)C)c2-3)[C@@H](C)C1 (stereo partly drawn) [Example 24, 2^4-((S)-4-acryloyl-2-methylpiperazin-1-yl)-2^6,3^6-difluoro-7-(2-fluoroethoxy)-6-hydroxy-1^2-isopropyl-2^1,2^2-dihydro-4-oxa-2(1,7)-pyrido[2,3-d]pyrimidina-1(3,4)-pyridina-3(1,2)-benzocycloheptane-2^2-one]
– | – | 0.015 µM | 0.036 µM | C=CC(=O)N1CCN(c2nc(=O)n3c4nc(c(F)cc24)-c2c(F)cccc2OCC(OCCF)C(O)c2ccnc(C(C)C)c2-3)[C@@H](C)C1 (stereo partly drawn) [Example 25, 2^4-((S)-4-acryloyl-2-methylpiperazin-1-yl)-2^6,3^6-difluoro-6-(2-fluoroethoxy)-7-hydroxy-1^2-isopropyl-2^1,2^2-dihydro-4-oxa-2(1,7)-pyrido[2,3-d]pyrimidina-1(3,4)-pyridina-3(1,2)-benzocycloheptane-2^2-one]
– | – | 0.001 µM | 0.002 µM | C=CC(=O)N1CCN(c2nc(=O)n3c4nc(c(F)cc24)-c2c(F)cccc2OCC(O)C(OC)c2ccnc(C(C)C)c2-3)[C@@H](C)C1 (stereo partly drawn) [Example 26, 2^4-((S)-4-acryloyl-2-methylpiperazin-1-yl)-7-methoxy-2^6,3^6-difluoro-6-hydroxy-1^2-isopropyl-2^1,2^2-dihydro-4-oxa-2(1,7)-pyrido[2,3-d]pyrimidina-1(3,4)-pyridina-3(1,2)-benzocycloheptane-2^2-one]
0.004 µM | 0.009 µM | – | – | C=CC(=O)N1CCN(c2nc(=O)n3c4nc(c(F)cc24)-c2c(F)cccc2OCC(OC)C(O)c2ccnc(C(C)C)c2-3)[C@@H](C)C1 (stereo partly drawn) [Example 27, 24-((S)-4-acryloyl-2-methylpiperazin-1-yl)-6-methoxy-2^6,3^6-difluoro-7-hydroxy-1^2-isopropyl-2^1,2^2-dihydro-4-oxa-2(1,7)-pyrido[2,3-d]pyrimidina-1(3,4)-pyridina-3(1,2)-benzocycloheptane-2^2-one]

SMILES | IC50 (MIA PaCa-2; [1]) | IC50 (H358; Homo sapiens, NCI-H358, 120 h) | IC50 (MIA PaCa-2) | IC50 (H358)
C=CC(=O)N1CCN(c2nc(=O)n3c4nc(c(F)cc24)-c2c(F)cccc2OCC(OC(C)=O)C(OC(C)=O)c2ccnc(C(C)C)c2-3)[C@@H](C)C1 (stereo partly drawn) [Example 18, 2^4-((S)-4-acryloyl-2-methylpiperazin-1-yl)-2^6,3^6-difluoro-1^2-isopropyl-2^2-oxo-2^1,2^2-dihydro-4-oxa-2(1,7)-pyrido[2,3-d]pyrimidina-1(3,4)-pyridina-3(1,2)-benzocycloheptane-6,7-diyl diacetate] | 0.006 µM | 0.014 µM | – | –
C=CC(=O)N1CCN(c2nc(=O)n3c4nc(c(F)cc24)-c2c(F)cccc2OCC(OC(C)=O)C(OC(C)=O)c2ccnc(C(C)C)c2-3)[C@@H](C)C1 (stereo partly drawn) [Example 18-R, (R)-2^4-((S)-4-acryloyl-2-methylpiperazin-1-yl)-2^6,3^6-difluoro-1^2-isopropyl-2^2-oxo-2^1,2^2-dihydro-4-oxa-2(1,7)-pyrido[2,3-d]pyrimidina-1(3,4)-pyridina-3(1,2)-benzocycloheptane-6,7-diyl diacetate] | – | – | 0.015 µM | 0.016 µM
C=CC(=O)N1CCN(c2nc(=O)n3c4nc(c(F)cc24)-c2c(F)cccc2OCC(OC(C)=O)C(OC(C)=O)c2ccnc(C(C)C)c2-3)[C@@H](C)C1 (stereo partly drawn) [Example 18-S, (S)-2^4-((S)-4-acryloyl-2-methylpiperazin-1-yl)-2^6,3^6-difluoro-1^2-isopropyl-2^2-oxo-2^1,2^2-dihydro-4-oxa-2(1,7)-pyrido[2,3-d]pyrimidina-1(3,4)-pyridina-3(1,2)-benzocycloheptane-6,7-diyl diacetate] | – | – | 0.266 µM | 0.351 µM
